Measured values: ChEMBL document CHEMBL1201862, “PubChem BioAssay data set” (2004)
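Five compound concentrations were applied to cells in 96-well plates for 48 hours; endpoints were derived by simple linear interpolation of the resulting dose-response curve. GI50 = concentration required for 50% inhibition of growth.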 Activity calls are given as the source filed them. Rule as the data show it: active = GI50 up to about 1.1 µM and inactive = higher.

Tests used:
Test in all cases: growth of human tumour cells (NCI), 48 h
OVCAR-4 = test system: OVCAR-4
SF-295 = test system: SF-295
OVCAR-5 = test system: OVCAR-5
MDA-MB-231 = test system: MDA-MB-231
SK-MEL-2 = test system: SK-MEL-2
MDA-MB-435 = test system: MDA-MB-435
OVCAR-3 = test system: OVCAR-3
HT-29 = test system: HT-29
SW-620 = test system: SW-620
HOP-92 = test system: HOP-92
SK-MEL-28 = test system: SK-MEL-28
UACC-62 = test system: UACC-62
MCF7 = test system: MCF7
HOP-62 = test system: HOP-62
Malme-3M = test system: Malme-3M
T47D = test system: T47D
SNB-19 = test system: SNB-19
Hs-578T = test system: Hs-578T
IGROV-1 = test system: IGROV-1
MDA-N = test system: MDA-N

Measured: GI50

OCCNC1=Nc2ccc(Cl)cc2C(=S)N2CSC[C@@H]12
inactive: OVCAR-4 > 100 µM | SF-295 > 100 µM | OVCAR-5 > 100 µM | MDA-MB-231 > 100 µM | SK-MEL-2 > 100 µM | MDA-MB-435 > 100 µM | OVCAR-3 > 100 µM | HT-29 > 100 µM | SW-620 > 100 µM | HOP-92 > 100 µM | SK-MEL-28 > 100 µM | UACC-62 > 100 µM | MCF7 > 100 µM | HOP-62 > 100 µM | Malme-3M > 100 µM | T47D > 100 µM | SNB-19 > 100 µM

CCOC(=O)C(Br)(C(N)=O)C1(O)OC(c2ccccc2)=C(Br)C1=O (centres undefined)
inactive: SF-295 > 100 µM | OVCAR-5 21.1 µM | MDA-MB-231 18.4 µM | SK-MEL-2 42.3 µM | MDA-MB-435 30.5 µM | OVCAR-3 25.8 µM | Hs-578T 50.7 µM | HT-29 20.7 µM | SW-620 20 µM | IGROV-1 20.5 µM | SK-MEL-28 80.9 µM | UACC-62 27.8 µM | MCF7 19.2 µM | HOP-62 32.1 µM | Malme-3M 25.2 µM | T47D 24.3 µM | SNB-19 > 100 µM

Oc1ccc(/N=C/c2ccc(/C=N/c3ccc(O)cc3)cc2)cc1
inactive: OVCAR-4 14.5 µM | SF-295 16.8 µM | OVCAR-5 19.3 µM | MDA-MB-231 14.2 µM | SK-MEL-2 21.2 µM | MDA-MB-435 16.3 µM | OVCAR-3 16.3 µM | Hs-578T 23.6 µM | HT-29 19.8 µM | SW-620 17.5 µM | HOP-92 24.7 µM | IGROV-1 20 µM | SK-MEL-28 18.8 µM | UACC-62 12.6 µM | MCF7 22.9 µM | HOP-62 17.6 µM | Malme-3M 18 µM | T47D 25.7 µM | SNB-19 16 µM

COc1ccc(C(=O)c2c(C(C(=O)c3ccc(OC)cc3)C(=O)c3ccc(OC)cc3)n(C(=O)c3ccc(OC)cc3)c3ccccc23)cc1
inactive: OVCAR-4 > 100 µM | SF-295 > 100 µM | OVCAR-5 > 100 µM | SK-MEL-2 > 100 µM | OVCAR-3 > 100 µM | HT-29 > 100 µM | SW-620 > 100 µM | HOP-92 > 100 µM | IGROV-1 > 100 µM | SK-MEL-28 > 100 µM | UACC-62 > 100 µM | HOP-62 > 100 µM | Malme-3M > 100 µM | SNB-19 > 100 µM

Cc1nc(=O)[nH]c2c1C(=O)N(C(C)C)C(NC(C)C)S2 (centres undefined)
inactive: OVCAR-4 57.9 µM | SF-295 > 100 µM | OVCAR-5 > 100 µM | MDA-MB-231 > 100 µM | SK-MEL-2 > 100 µM | MDA-MB-435 > 100 µM | OVCAR-3 26.9 µM | MDA-N > 100 µM | HT-29 > 100 µM | SW-620 > 100 µM | HOP-92 97.7 µM | IGROV-1 > 100 µM | SK-MEL-28 > 100 µM | UACC-62 76 µM | MCF7 > 100 µM | HOP-62 > 100 µM | Malme-3M 57.7 µM | T47D 90.2 µM | SNB-19 > 100 µM

O=C1c2cc(I)ccc2N2CCN=C2N1Cc1ccccc1
inactive: OVCAR-4 > 100 µM | SF-295 73.1 µM | OVCAR-5 > 100 µM | MDA-MB-231 > 100 µM | SK-MEL-2 > 100 µM | MDA-MB-435 > 100 µM | OVCAR-3 > 100 µM | Hs-578T 72.1 µM | HT-29 > 100 µM | SW-620 > 100 µM | HOP-92 17.7 µM | IGROV-1 > 100 µM | SK-MEL-28 > 100 µM | MCF7 > 100 µM | HOP-62 > 100 µM | Malme-3M > 100 µM | T47D 58.7 µM | SNB-19 63.8 µM

CCOC(=O)c1c(-c2ccc(O)c(OC)c2)c(C#N)c(=S)n(C2OC(CO)C(O)C(O)C2O)c1-c1ccccc1 (centres undefined)
inactive: OVCAR-4 > 100 µM | SF-295 > 100 µM | OVCAR-5 > 100 µM | MDA-MB-435 > 100 µM | OVCAR-3 > 100 µM | MDA-N > 100 µM | Hs-578T > 100 µM | HT-29 > 100 µM | SW-620 > 100 µM | HOP-92 66.7 µM | IGROV-1 > 100 µM | SK-MEL-28 > 100 µM | UACC-62 > 100 µM | MCF7 > 100 µM | HOP-62 > 100 µM | SNB-19 > 100 µM

CC(=O)OCC1OC(n2c(C)c(C)c(C)c(C#N)c2=S)C(OC(C)=O)C(OC(C)=O)C1OC(C)=O (centres undefined)
inactive: OVCAR-4 > 100 µM | SF-295 14.8 µM | OVCAR-5 > 100 µM | MDA-MB-231 > 100 µM | SK-MEL-2 31.9 µM | MDA-MB-435 > 100 µM | OVCAR-3 > 100 µM | MDA-N > 100 µM | HT-29 > 100 µM | SW-620 > 100 µM | HOP-92 34.1 µM | IGROV-1 > 100 µM | SK-MEL-28 > 100 µM | UACC-62 > 100 µM | MCF7 > 100 µM | HOP-62 13.3 µM | Malme-3M > 100 µM | T47D > 100 µM | SNB-19 33.7 µM

Nn1c(-c2ccccc2Cl)nc2ccccc2c1=O
inactive: OVCAR-4 > 100 µM | SF-295 > 100 µM | OVCAR-5 > 100 µM | SK-MEL-2 > 100 µM | OVCAR-3 > 100 µM | HT-29 > 100 µM | SW-620 > 100 µM | HOP-92 > 100 µM | IGROV-1 > 100 µM | SK-MEL-28 > 100 µM | UACC-62 > 100 µM | HOP-62 > 100 µM | Malme-3M 83.8 µM | SNB-19 > 100 µM

Clc1cccc(-c2sc(-c3ccsc3)cc2Cc2ccsc2)c1
inactive: OVCAR-4 > 10 µM | SF-295 > 10 µM | MDA-MB-231 > 10 µM | MDA-MB-435 > 10 µM | MDA-N > 10 µM | HT-29 > 10 µM | SW-620 > 10 µM | HOP-92 > 10 µM | IGROV-1 > 10 µM | SK-MEL-28 > 10 µM | UACC-62 > 10 µM | MCF7 > 10 µM | HOP-62 > 10 µM | Malme-3M > 10 µM | T47D 8 µM

Cc1cccc2c1Oc1cc(Cl)ccc1C2NC(=O)CCN1CCOCC1 (centres undefined)
inactive: OVCAR-4 > 100 µM | SF-295 > 100 µM | OVCAR-5 > 100 µM | MDA-MB-231 > 100 µM | MDA-MB-435 > 100 µM | OVCAR-3 > 100 µM | MDA-N > 100 µM | HT-29 61.8 µM | SW-620 > 100 µM | HOP-92 18.1 µM | IGROV-1 > 100 µM | SK-MEL-28 > 100 µM | UACC-62 50.1 µM | MCF7 > 100 µM | HOP-62 > 100 µM | T47D > 100 µM | SNB-19 > 100 µM

CCOc1ccc(OCC(=O)O)c2c1CCCC2=O
inactive: OVCAR-4 > 100 µM | SF-295 > 100 µM | OVCAR-5 > 100 µM | SK-MEL-2 > 100 µM | OVCAR-3 > 100 µM | HT-29 > 100 µM | SW-620 > 100 µM | HOP-92 > 100 µM | IGROV-1 > 100 µM | SK-MEL-28 > 100 µM | UACC-62 > 100 µM | HOP-62 > 100 µM | Malme-3M > 100 µM | SNB-19 > 100 µM
